Several values for one entry are separate records, joined by “and”; a condition that tells them apart may be missing. Equal entries are not always repeated. Inconclusive results are not listed.
Tested on: BDF1 mice, colon carcinoma 38 sc, T/C %
Assay: NCI In Vivo Anticancer Drug Screen. Data for tumor model Colon Carcinoma 38 (subcutaneous) in B6D2F1 (BDF1) mice
Conditions: endpoint: median tumor weight (est.), higher = larger tumour
Summary of the method: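 Compound antitumor activity was assessed in mice carrying transplantable tumors. Survival or tumor size was recorded, and each value is the treated-group measurement divided by that of the vehicle-treated control group.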

[1] = dose: 12.5 mg/kg/injection, schedule: Q07DX002 (ip), vehicle: saline
[2] = dose: 25.0 mg/kg/injection, schedule: Q07DX002 (ip), vehicle: saline
[3] = dose: 100.0 mg/kg/injection, schedule: Q07DX002 (ip), vehicle: saline

With `CCN1/C(=C/C=C/C=C/c2sc3ccccc3[n+]2CC)Sc2ccccc21` the T/C (dose: 0.03 mg/kg/injection, schedule: Q07DX002 (ip), vehicle: saline) was 151 % of control, the T/C (dose: 0.03 mg/kg/injection, schedule: Q07DX002 (ip), vehicle: suspension in saline) was 59 % of control and the T/C (dose: 0.06 mg/kg/injection, schedule: Q07DX002 (ip), vehicle: saline) was 167 % of control. For the same compound, the T/C (dose: 0.06 mg/kg/injection, schedule: Q07DX002 (ip), vehicle: suspension in saline) was 104 % of control, the T/C (dose: 0.12 mg/kg/injection, schedule: Q07DX002 (ip), vehicle: saline) was 122 % of control and the T/C (dose: 0.12 mg/kg/injection, schedule: Q07DX002 (ip), vehicle: suspension in saline) was 100 % of control. For the same compound, the T/C (dose: 0.25 mg/kg/injection, schedule: Q07DX002 (ip), vehicle: suspension in saline) was 104 % of control, the T/C (dose: 0.5 mg/kg/injection, schedule: Q07DX002 (ip), vehicle: saline) was 162 % of control and the T/C (dose: 0.5 mg/kg/injection, schedule: Q07DX002 (ip), vehicle: suspension in saline) was 109 % of control. For the same compound, the T/C (dose: 1.0 mg/kg/injection, schedule: Q07DX002 (ip), vehicle: saline) was 197 % of control.

For `CC(C)=CCC/C(C)=C/COc1ccc(/C=C2/C(=O)N(O)[C@@H](C)C(=O)N2O)cc1`, the T/C (dose: 6.25 mg/kg/injection, schedule: Q07DX002 (ip), vehicle: saline) was 262 % of control, the T/C [1] was 202 % of control and the T/C [2] was 178 % of control. The T/C (dose: 50.0 mg/kg/injection, schedule: Q07DX002 (ip), vehicle: saline) was 154 % of control and the T/C [3] was 154 % of control.

`C=CCOCC1CO1` (stereo not drawn) was tested, and the T/C [1] was 66 % of control, the T/C [3] was 85 % of control and the T/C (dose: 200.0 mg/kg/injection, schedule: Q07DX002 (ip), vehicle: saline) was 122 % of control.

`C=C(C)[C@H]1Cc2c(ccc3c2O[C@@H]2COc4cc(OC)c(OC)cc4[C@@H]2C3=O)O1` was tested, and the T/C (dose: 2.0 mg/kg/injection, schedule: Q07DX003 (ip), vehicle: saline with Tween-80) was 230 % of control and the T/C (dose: 8.0 mg/kg/injection, schedule: Q07DX003 (ip), vehicle: saline with Tween-80) was 98 % of control.

For `CN(C)c1ccc2c(NCCCCCCNc3ccnc4cc(N(C)C)ccc34)ccnc2c1`, the T/C (dose: 3.12 mg/kg/injection, schedule: Q07DX002 (ip), vehicle: distilled water + Tween-80 + alcohol) was 81 % of control, the T/C (dose: 6.25 mg/kg/injection, schedule: Q07DX002 (ip), vehicle: distilled water + Tween-80 + alcohol) was 77 % of control and the T/C (dose: 12.5 mg/kg/injection, schedule: Q07DX002 (ip), vehicle: distilled water + Tween-80 + alcohol) was 62 % of control. For the same compound, the T/C (dose: 25.0 mg/kg/injection, schedule: Q07DX002 (ip), vehicle: distilled water + Tween-80 + alcohol) was 62 % of control, the T/C (dose: 50.0 mg/kg/injection, schedule: Q07DX002 (ip), vehicle: distilled water + Tween-80 + alcohol) was 47 % of control and the T/C (dose: 100.0 mg/kg/injection, schedule: Q07DX002 (ip), vehicle: distilled water + Tween-80 + alcohol) was 20 % of control.

With `Nc1nnc[se]1` the T/C (dose: 6.25 mg/kg/injection, schedule: Q07DX002 (ip), vehicle: saline with Tween-80) was 79 % of control and 100 % of control, the T/C (dose: 12.5 mg/kg/injection, schedule: Q07DX002 (ip), vehicle: saline with Tween-80) was 66 % of control and 73 % of control and the T/C (dose: 25.0 mg/kg/injection, schedule: Q07DX002 (ip), vehicle: saline with Tween-80) was 86 % of control and 89 % of control. For the same compound, the T/C (dose: 200.0 mg/kg/injection, schedule: Q07DX002 (ip), vehicle: saline with Tween-80) was 50 % of control.

With `OCC12COCN1COC2` the T/C [2] was 82 % of control and 86 % of control, the T/C (dose: 400.0 mg/kg/injection, schedule: Q07DX002 (ip), vehicle: saline) was 85 % of control and 97 % of control and the T/C (dose: 800.0 mg/kg/injection, schedule: Q07DX002 (ip), vehicle: saline) was 91 % of control.

In the case of `C=C1C(C2(C)C(OC(C)=O)CC(=O)OC(C)(COC(C)=O)C2CC(=O)OC)C(OC=O)C(OC(=O)C(O)C(C)CC)C2(C)C(c3ccoc3)CC(=O)C12O` (stereo not drawn), the T/C (dose: 3.0 mg/kg/injection, schedule: Q07DX002 (ip), vehicle: Klucel (hydroxypropylcellulose) (HPC)) is reported as 64 % of control, the T/C (dose: 6.0 mg/kg/injection, schedule: Q07DX002 (ip), vehicle: Klucel (hydroxypropylcellulose) (HPC)) is reported as 68 % of control and the T/C (dose: 12.0 mg/kg/injection, schedule: Q07DX002 (ip), vehicle: Klucel (hydroxypropylcellulose) (HPC)) is reported as 77 % of control. The T/C (dose: 24.0 mg/kg/injection, schedule: Q07DX002 (ip), vehicle: Klucel (hydroxypropylcellulose) (HPC)) was 90 % of control and the T/C (dose: 48.0 mg/kg/injection, schedule: Q07DX002 (ip), vehicle: Klucel (hydroxypropylcellulose) (HPC)) was 61 % of control.

Reference: PubChem BioAssay AID212 (DTP/NCI, 2004)
